Data: US20130287807A1, “COMPOUNDS FOR TREATING SYMPTOMS ASSOCIATED WITH PARKINSON'S DISEASE” (priority 2008, published 2013)
Entries after “also recorded” stand apart in the source; their conditions may differ. Values belong to the compound of their own block, whether it stands above or below them.

Experiments:
[1] = tested on: full length Aβ and/or fragments thereof; test: Immune response elicited by using AD mimotopes: detection of Aβ; assay type: in vivo; set-up: key: +: All peptides listed in table 1 mount specific immune reactions against full length Aβ and/or fragments thereof
Excerpt: In the following Table further examples of the immune response elicited by using AD mimotopes are described. All peptides listed in table 1 mount specific immune reactions against full length Aβ and/or fragments thereof.

[2] = tested on: monoclonal antibody (DAEFRH-peptide-specific); test: Inhibition assay (ELISA): mimotope peptides compete with plate-bound original epitope DAEFRH for recognition by the monoclonal antibody; assay type: binding, Mice; details: for inhibition of binding of the monoclonal antibody to the original epitope: text to FIGS. 2-9; for Inhibitory capacity of mimotopes: summary Tables 1 and 2 (Examples 2, 3)
Excerpt: Mice are vaccinated with the 6mer peptide DAEFRH (natural N-terminal Aβ42 sequence) linked to the protein bovine serum albumin BSA (to make use of the hapten-carrier-effect), emulsified in CFA (first injection) and IFA (booster injections). DAEFRH-peptide-specific, antibody-producing hybridomas are detected by ELISA (DAEFRH-peptide-coated ELISA plates).
FIGS. 2 and 3 describe the results of inhibition assays performed with mimotope peptides included in and obtained from the 5 libraries (as described in WO 2004/062556). The mimotope peptides compete with the original epitope for recognition by the monoclonal antibody. Original epitope and mimotope peptides contain an additional C at the C-terminus for coupling to a protein carrier (if desired).
(§1) After blocking with PBS/BSA 1% (200 μl/well, 12 h, 4° C.), the plates are washed 3× times with PBS/Tween. Then, biotinylated monoclonal antibody (1:2000, 50 μl/well) and peptides (50 μl/well) at 50, 5, 0.5, 0.05, 0.005, and 0.0005 μg/ml are added for 20 min. at 37° C. The plates are washed 3× times with PBS/Tween and are incubated with horseradish peroxidase (HRP)-labeled streptavidin (100 μl/well, 30 min, RT). The plates are washed 5× times with PBS/Tween and are incubated with ABTS+H2O2(0.1% w/v, 10 to 45 min) and the reaction is stopped with citric acid followed by photometric evaluation (wavelength 405 nm).
as §1, with “different concentrations” for “50, 5, 0.5, 0.05, 0.005, and 0.0005 μg/ml”, “ABTS+H2O2 (0.1%” for “ABTS+H2O2(0.1%”
as §1, with “different concentrations” for “50, 5, 0.5, 0.05, 0.005, and 0.0005 μg/ml”

[3] = tested on: monoclonal antibody MV-003; test: In vitro inhibition assay (ELISA), MV-003 binding to original epitope; set-up: species or system BalbC mice; details: Table 2A; OD at 10 ug peptide compared to original peptide
Procedure: (§2) Different amounts of peptides (concentrations ranging from 10 μg to 0.08 μg; serial dilutions; for MV-002: concentrations ranging from 5 μg to 0.03 μg; serial dilutions), derived from Phage Display were incubated with the monoclonal antibody that was used for the screening procedure. Peptides diminishing subsequent binding of the antibody to the original epitope coated on ELISA plates were considered as inhibiting in this assay.
(§3) Legend to Table 2A: the inhibition capacity is coded by the following code: Weak inhibition means more peptide is required to lower AB binding than with the original epitope; strong inhibition means similar peptide amounts are required for mimotope and original epitope for lowering AB binding. Mimotopes are compared to the original peptide as standard. OD at 10 ug peptide used in the assay is used to calculate the competition capacity compared to original peptide.

[4] = tested on: monoclonal antibody MV-003; test: In vitro binding assay (ELISA), BSA-coupled peptides, parental antibody MV-003; set-up: species or system BalbC mice; details: Table 1A; peptide-BSA on plate, compared to original epitope
Procedure: Peptides derived from Phage Display as well as variants thereof were coupled to BSA and bound to ELISA plates (1 μM; as indicated in the respective figures) and subsequently incubated with the monoclonal antibody that was used for the screening procedure to analyse binding capacity of identified peptides.
Legend to Table 1A: the binding capacity is coded by the following binding code: 1:X describes the dilution factor of the parental AB.

[5] = tested on: monoclonal antibody MV-002; test: In vitro inhibition assay (ELISA), MV-002 binding to original epitope; set-up: species or system C57/B16 mice; details: for inhibition of binding of monoclonal antibody in in vitro competition experiments: MV-002 mimotopes; for Inhibition Capacity: Table 2 (MV-002), OD at 5 ug peptide compared to original peptide
Procedure: as §2
as §3, with “2:” for “2A:”, “5” for “10”

[6] = tested on: injected peptide (mimotope-BSA conjugate); test: Mimotope vaccination, serum titer ELISA against injected peptide; assay type: in vivo, C57/B16 mice; details: 30 μg peptide-KLH s.c. with alum, anti-mouse IgG
Procedure: (§4) Inhibiting as well as non-inhibiting peptides were coupled to KLH and injected into mice (wildtype C57/B16 mice; subcutaneous injection into the flank) together with an appropriate adjuvant (aluminium hydroxide). Animals were vaccinated 3-6 times in biweekly intervals and sera were taken biweekly as well. Titers to injected peptides, as well as to an irrelevant peptide were determined with every serum. Furthermore, titers against the recombinant human Aβ protein, and against original peptides were determined respectively. In general sera were analysed by reaction against peptides coupled to Bovine Serum Albumin (BSA) and recombinant full length proteins which were immobilised on ELISA plates. Titers were determined using anti mouse IgG specific antibodies. For detailed results see FIGS. 15, 16 and 17 respectively and FIGS. 23, 24 and 25 respectively.
(§5) Female C57/b16 mice, 5-6 mice per group, were subcutaneously immunized with 30 μg peptide coupled to KLH. Control groups were administered original epitope-KLH conjugates respectively. As adjuvant alum was used (always 1 mg per mouse). […] The in vitro ELISA assay to determine the antibody titer was performed with sera of single mice after each vaccination in a two week interval (see FIGS. 15 and 16 respectively). The wells of the ELISA plate were coated with mimotope-BSA conjugate and an irrelevant peptide-BSA conjugate (negative control). The positive control was performed by reaction of the parental antibody with the respective mimotope-BSA conjugate. The detection was performed with anti-mouse IgG. Additionally, recombinant proteins were immobilised on ELISA plates and sera reacted accordingly. FIGS. 15 to 17 show representative examples for assays used to characterise mimotopes in vivo.
as §5, with “FIGS. 25” for “FIGS. 15”, “and 26” for “and 16”, “respectively). Titers were calculated as OD max/2 in all figures shown.” for “respectively).”, “FIGS. 23, 24 and 25” for “FIGS. 15 to 17”

[7] = tested on: Aβ/truncated/modified forms; test: In vivo characterisation of mimotopes: detection of Aβ/truncated/modified forms; set-up: species or system C57/B16 mice; key: +: All peptides listed in table 4 mount specific immune reactions against full length and/or truncated and modified forms of Aβ or fragments thereof; details: Table 4, MV-002 derived mimotopes
Procedure: as §4, §5
as §5, with “FIGS. 25” for “FIGS. 15”, “and 26” for “and 16”, “respectively). Titers were calculated as OD max/2 in all figures shown.” for “respectively).”, “FIGS. 23, 24 and 25” for “FIGS. 15 to 17”

irrelevant peptide p1454 = test: Mimotope vaccination, serum titer ELISA against irrelevant peptide; assay type: in vivo, C57/B16 mice; details: 30 μg peptide-KLH s.c. with alum
Procedure: as §4, §5
as §5, with “FIGS. 25” for “FIGS. 15”, “and 26” for “and 16”, “respectively). Titers were calculated as OD max/2 in all figures shown.” for “respectively).”, “FIGS. 23, 24 and 25” for “FIGS. 15 to 17”

p4377 = test: Mimotope vaccination, serum ELISA against p4377; assay type: in vivo, C57/B16 mice; details: peptide-KLH vaccines with alum; FIG. 24
Procedure: as §4
as §5, with “FIGS. 25” for “FIGS. 15”, “and 26” for “and 16”, “respectively). Titers were calculated as OD max/2 in all figures shown.” for “respectively).”, “FIGS. 23, 24 and 25” for “FIGS. 15 to 17”

[8] = tested on: monoclonal antibody MV-002; test: In vitro binding assay (ELISA), BSA-coupled peptides, parental antibody MV-002; set-up: species or system C57/B16 mice; details: Table 1 (MV-002); peptide-BSA on plate, compared to original epitope
Summary of the method: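 BSA-conjugated phage-display peptides and variants coated on ELISA plates at 1 μM, then incubated with the monoclonal antibody used for the screen. Binding capacity given as 1:X, the dilution factor of the parental antibody; Ac- marks acetylated amino acids.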

[9] = competition ELISA, plate-bound DAEFRH-C-BSA

Compound: C[C@H](NC(=O)[C@@H](N)Cc1ccc(O)cc1)C(=O)N[C@@H](CCC(=O)O)C(=O)N[C@@H](Cc1ccccc1)C(=O)N[C@@H](CCCNC(=N)N)C(=O)NCC(=O)N[C@@H](CS)C(=O)O [Peptide 3005, YAEFRG]
- Detection of Aβ [1]: +
- inhibition of binding of the monoclonal antibody to the original epitope [2, 9]: block epitope recognition
- Inhibitory capacity of mimotopes [2]: intermediate

Compound: GREFRN (GREFRNC) [Peptide 4003]
- Detection of Aβ [1]: +
- inhibition of binding of the monoclonal antibody to the original epitope [2, 9]: block epitope recognition; also recorded: only inhibitory at a relatively high concentration (10 μg/ml)
- Inhibitory capacity of mimotopes [2]: weak

Compound: CC(C)C[C@H](NC(=O)[C@@H](N)CCC(=O)O)C(=O)N[C@@H](CCC(=O)O)C(=O)N[C@@H](Cc1ccccc1)C(=O)N[C@@H](CCCNC(=N)N)C(=O)NCC(=O)N[C@@H](CS)C(=O)O [Peptide 3008, ELEFRG]
- Detection of Aβ [1]: +
- Inhibitory capacity of mimotopes [2]: weak

Compound: C[C@H](NC(=O)[C@@H](N)CCC(=O)O)C(=O)N[C@@H](CCC(=O)O)C(=O)N[C@@H](Cc1ccccc1)C(=O)N[C@@H](CCCNC(=N)N)C(=O)NCC(=O)N[C@@H](CS)C(=O)O [Peptide 3006, EAEFRG]
- Detection of Aβ [1]: +
- inhibition of binding of the monoclonal antibody to the original epitope [2, 9]: block epitope recognition
- Inhibitory capacity of mimotopes [2]: strong

Compound: N=C(N)NCCC[C@H](NC(=O)[C@H](Cc1ccccc1)NC(=O)[C@H](CCC(=O)O)NC(=O)[C@H](Cc1ccc(O)cc1)NC(=O)[C@@H](N)CCC(=O)O)C(=O)NCC(=O)N[C@@H](CS)C(=O)O [Peptide 1239, EYEFRG]
- Detection of Aβ [1]: +
- IC50 (inhibition of monoclonal antibody recognition of DAEFRH) ([2]; competition ELISA, plate-bound DAEFRH-C-BSA, biotinylated mAb 1:2000): more than 0.5 μg/ml
- inhibition of binding of the monoclonal antibody to the original epitope [2, 9]: block epitope recognition
- Inhibitory capacity of mimotopes [2]: intermediate

Second part, led by results:

- inhibition of binding of the monoclonal antibody to the original epitope [2, 9]: block epitope recognition
Compound: N=C(N)NCCC[C@H](NC(=O)[C@H](Cc1ccccc1)NC(=O)[C@H](CCC(=O)O)NC(=O)[C@H](Cc1ccc(O)cc1)NC(=O)[C@@H](N)CC(=O)O)C(=O)NCC(=O)N[C@@H](CS)C(=O)O [Peptide 3007, DYEFRG]
- Detection of Aβ [1]: +
- Inhibitory capacity of mimotopes [2]: strong

- Binding Capacity [4]: 3 (strong binding :>60000)
Compound: IRWDQPC [p4756]
- Inhibition Capacity [3]: 1 (Weaker than original epitope (OD of 10 ug peptide below 12 times of original peptide))

- inhibition of binding of monoclonal antibody in in vitro competition experiments [5]: without inhibition capacity
- Binding Capacity [8]: 1 (weak binding :<40000)
Compound: SHTRLYFC [p4403]
- immune response against injected peptide [6]: elicited immune responses
- Detection of Aβ/truncated/modified forms [7]: +
- immune response against unrelated sequence (p1454) (irrelevant peptide p1454): failed to induce a relevant unspecific immune response
- immune response against original epitope p4377 (p4377): mounted detectable immune responses

- Binding Capacity [4]: 2 (medium binding :16-60000)
Compound: IRWDGGC [p4793]
- Inhibition Capacity [3]: 1 (Weaker than original epitope (OD of 10 ug peptide below 12 times of original peptide))

- inhibition of binding of monoclonal antibody in in vitro competition experiments [5]: active in in vitro inhibition assays
- Binding Capacity [8]: 3 (strong binding :>320000)
Compound: GEIWFEGC [p4680]
- Inhibition Capacity [5]: 2 (strong inhibition (as original epitope; OD of peptide below 2, 3 times of original peptide))
- immune response against injected peptide [6]: elicited immune responses
- Detection of Aβ/truncated/modified forms [7]: +
- immune response against unrelated sequence (p1454) (irrelevant peptide p1454): failed to induce a relevant unspecific immune response
- immune response against original epitope p4377 (p4377): mounted detectable immune responses

- inhibition of binding of monoclonal antibody in in vitro competition experiments [5]: active in in vitro inhibition assays
- Binding Capacity [8]: 3 (strong binding :>320000)
Compound: HMRLFFNC [p4670]
- Inhibition Capacity [5]: 1 (Weaker than original epitope (OD of peptide below 4, 6 times of original peptide))
- immune response against injected peptide [6]: elicited immune responses
- Detection of Aβ/truncated/modified forms [7]: +
- immune response against unrelated sequence (p1454) (irrelevant peptide p1454): failed to induce a relevant unspecific immune response
- immune response against original epitope p4377 (p4377): mounted detectable immune responses
